Measured values published in patent US5902815A, “Use of 5HT-2A serotonin agonists to prevent adverse effects of NMDA receptor hypofunction” (priority 1996, dated 1999).
“Also recorded” adds a separate entry of the source. Like-named read-outs stand apart in the source and are kept apart here.

How the values were obtained:
[1] = system: NR/hypo-induced vacuoles in PC/RS cortical neurons (MK-801); assay: Anti-psychotic drugs and sigma blockers: protection against NR/hypo-induced vacuoles; type: in vivo, rats; conditions: for ED50: Rattus norvegicus, Cortical neurone, read-out: ED50 in protecting against NR/hypo-induced vacuoles; for ED50 / activity in protecting against NR/hypo-induced vacuoles (words): ip; for effect on vacuole formation / activity in protecting against NR/hypo-induced vacuoles (words): rats, MK-801; for activity in protecting against NR/hypo-induced vacuoles (words): sulpiride given only 15 minutes prior to MK-801
Description: Several of the antipsychotic agents tested (haloperidol, thioridazine and loxapine) are known to interact with both dopamine receptors and sigma receptors.
Control animals received saline or DMSO, but no anti-psychotic drugs. Test animals were injected ip with an antipsychotic drug, listed above and in Table 2. Vacuoles were counted and data were processed as described in Example 1.

5HT-2C = conditions: cited from earlier work
5HT-3 = conditions: cited from earlier work
5HT-6 = conditions: cited from earlier work
5HT-7 = conditions: cited from earlier work
5HT2C receptors = conditions: Burris et al 1991 or other literature; cited from earlier work
5HT-2A receptors = conditions: Burris et al 1991 or other literature; cited from earlier work
[2] = system: vacuolated pyramidal neurons of posterior cingulate and retrosplenial (PC/RS) cortices, MK-801 neurotoxicity; assay: Blocking MK-801 neurotoxicity (vacuolated PC/RS cortical neurons) in rats by serotonergic agents; type: in vivo, adult female rats; conditions: for ED50: Rattus norvegicus, Pyramidal neuron, read-out: ED50 in blocking MK-801 neurotoxicity, rats
Description: Each test rat also received a 5HT-2A/2C agonist drug (LSD, DOB, DOI, or DOM), while control rats received an inert carrier liquid as a placebo. After 4 hours, the rats were sacrificed, and brain tissue from specific regions which are susceptible to NR/hypo damage (layers III and IV of the posterior cingulate (PC) and retrosplenial (RS) cortices) were examined for vacuoles in the neurons, which are an indicator of toxic neuronal injury induced by NMDA receptor hypofunction.
DOI was purchased from Research Biochemicals International (Natick, Mass.).
(§1) For each test agent, at least 20 rats were used, and at least four dosages were tested.
(§2) The rats were sacrificed four hours after drug administration, and brain tissue from the PC/RS region was histopathologically evaluated by previously described methods using double-blinded techniques (Olney et al 1991). The number of vacuolated PC and RS neurons were counted on each side of the brain at a rostrocaudal level immediately posterior to where the corpus callosum ceases decussating across the midline (approximately 5.6 mm caudal to Bregma; Paxinos & Watson, The Rat Brain in Stereotaxic Coordinates, 2d Ed., 1986).
This drug is widely used in Europe, and is a 5HT-2A agonist but a 5HT-2C antagonist.
It is described in Nozulak et al 1993.

humans = conditions: cited from earlier work; for psychotomimetic reactions / psychosis in humans: NMDA antagonists
cerebrocortical neurons = conditions: cited from earlier work
[3] = system: pyramidal neurons in layers III and IV of the posterior cingulate (PC) and retrosplenial (RS) cortices; assay: Neurotoxic reaction to MK-801 in control rats (vacuolated neurons per section); type: in vivo, adult female rats; conditions: MK-801 0.5 mg/kg sc plus vehicle; ± SEM; n=26
Description: as §1, §2

[4] = system: NMDA receptors in chick embryo retina; assay: Excitotoxicity in chick embryo retina (NMDA with MK-801, LSD or DOI); conditions: MK-801 500 nM plus NMDA 40 μM, with or without LSD or DOI 500 nM to 100 μM; n=6 per condition
Description: Several tests were performed to ensure that when a 5HT-2A agonist is administered together with an NMDA antagonist, the 5HT-2A agonist will not interfere with the activity of the NMDA antagonist drug at NMDA receptors.
These experiments were performed using segments of chick embryo retina. This is a widely used model for studying the production and prevention of excitotoxic phenomena, since it is simple and inexpensive. Chick tissue is used, since it tends to provide a better model of adult mammalian tissue than embryonic or juvenile mammalian tissue. Unlike newborn mammals, which are usually blind at birth, baby chicks can see quite well as soon as they emerge from the shell, and the NMDA receptors in chick retinal tissue are fully mature and functional.
In these tests, NMDA was introduced into the incubation medium in a concentration (40 μM) sufficient to produce a fully developed excitotoxic lesion within 30 min, displaying acute degeneration and necrosis of the majority of neurons in the inner layers of the retina.

schizophrenia = conditions: cited from earlier work
craving for cocaine = conditions: Sershen 1994; cited from earlier work
5HT-2A/2C receptor = assay: 5HT-2A/2C antagonist block of agonist protection against MK-801 neurotoxicity; type: in vivo, adult female rats
Source text: The following example confirms that the neuroprotective effects provided by 5HT-2A/2C agonists are mediated through either the 5HT-2A or 5HT-2C receptor (or both), rather than through cross-reactivity at some other receptor or through some other mechanism. This was done by showing that these neuroprotective effects are blocked by selective 5HT-2A/2C antagonists.
Ritanserin is an antagonist drug that selectively blocks activation of 5HT-2A/2C receptors.
The brains were processed and the severity of damage was assessed as described in Example 1. Results were analyzed by analysis of covariance (ANCOVA) where the dose of DOI was the covariate and the presence of ritanserin served as the classification (treatment) variable. The homogeneity of slopes assumption was tested by determining whether there was a significant interaction between the covariate and the treatment variable.

[5] = system: NMDA antagonist toxic side effects; assay: Safener drugs against NMDA antagonist toxic side effects (earlier findings); type: in vivo; conditions: Applicants' discovery, no data given
[6] = ip, 4 h, MK-801 0.5 mg/kg sc, test compound ip, dose reducing mean vacuolated neurons to 50% of control, 4 h
[7] = Olney et al 1989, Corso et al 1994, adult rat

## Clc1ccc2c(c1)C(N1CCNCC1)=Nc1ccccc1O2 [Amoxapine]
[1]
  ED50: 75 mg/kg

## CN1CCN(C2=Nc3cc(Cl)ccc3Nc3ccccc32)CC1 [Clozapine]
5HT-2C
  affinity for 5HT-2C: high affinity
[1]
  ED50: 3.2 mg/kg
5HT-3
  affinity for 5HT-3: high affinity
5HT-6
  affinity for 5HT-6: high affinity
5HT-7
  affinity for 5HT-7: high affinity

## COc1cc(CC(C)N)c(OC)cc1Br (stereo not shown) [DOB, 1-(2,5-dimethoxy-4-bromophenyl)-2-aminopropane]
5HT2C receptors
  activity at 5HT-2C receptors: selectively activate 5HT-2A and 5HT-2C receptors with higher affinity than other 5HT receptors
5HT-2A receptors
  activity at 5HT-2A receptors: selectively activate 5HT-2A and 5HT-2C receptors with higher affinity than other 5HT receptors
[2]; [6]
  ED50: 0.36 mg/kg

## COc1cc(CC(C)N)c(OC)cc1I (stereo not shown) [DOI, 1-(2,5-dimethoxy-4-iodophenyl)-2-aminopropane]
5HT2C receptors
  activity at 5HT-2C receptors: selectively activate 5HT-2A and 5HT-2C receptors with higher affinity than other 5HT receptors
5HT-2A receptors
  activity at 5HT-2A receptors: selectively activate 5HT-2A and 5HT-2C receptors with higher affinity than other 5HT receptors
[2]; DOI n=29, SDZ SER-082 added to block 5HT-2C receptor
  protection against NMDA antagonist toxicity with SDZ SER-082 added: found to protect against NMDA antagonist toxicity
[2]; [6]
  ED50: 1.05 mg/kg

## COc1cc(CC(C)N)c(OC)cc1C (stereo not shown) [DOM, 1-(2,5-dimethoxy-4-methylphenyl)-2-aminopropane]
5HT2C receptors
  activity at 5HT-2C receptors: selectively activate 5HT-2A and 5HT-2C receptors with higher affinity than other 5HT receptors
5HT-2A receptors
  activity at 5HT-2A receptors: selectively activate 5HT-2A and 5HT-2C receptors with higher affinity than other 5HT receptors
[2]; [6]
  ED50: 0.81 mg/kg

## Cc1ccccc1N=C(N)Nc1ccccc1C [Di(2-tolyl)guanidine, di(2-tolyl)guanidine]
[1]
  ED50: 22.2 mg/kg

## CN1CCN(C2=Nc3cc(F)ccc3Cc3ccccc32)CC1 [Fluperlapine]
[1]
  ED50: 2.3 mg/kg
  effect on vacuole formation: shown to reduce vacuole formation

## O=C(CCCN1CCC(O)(c2ccc(Cl)cc2)CC1)c1ccc(F)cc1 [Haloperidol]
[1]
  ED50: 5.1 mg/kg

## CNC1(c2ccccc2Cl)CCCCC1=O (stereo not shown) [Ketamine]
humans
  psychotomimetic reactions / psychosis in humans: produces symptoms in normal humans that are indistinguishable from the symptoms of psychosis and thought disorder seen in schizophrenia
humans; anesthetic, intravenous
  duration of action: about 15 minutes
Cerebrocortical neurons; rat, in vivo
  pathomorphological changes in brain: cause pathomorphological changes in the cerebral cortex of adult rats

## CCN(CC)C(=O)[C@@H]1C=C2c3cccc4[nH]cc(c34)C[C@H]2N(C)C1 [LSD, lysergic acid diethylamide]
5HT2C receptors
  activity at 5HT-2C receptors: agonizes 5HT-2A and 5HT-2C receptors
5HT-2A receptors
  activity at 5HT-2A receptors: agonizes 5HT-2A and 5HT-2C receptors
[2]; [6]
  ED50: 0.68 mg/kg
[2]; rats, MK-801 0.5 mg/kg sc, test compound ip, dose reducing mean vacuolated neurons to 50% of control, 4 h, 240 min
  ED50 in blocking MK-801 neurotoxicity: 0.67 mg/kg

## CCN(CC)C(=O)N[C@H]1C=C2c3cccc4[nH]cc(c34)C[C@H]2N(C)C1 [Lisuride]
humans; in vivo
  hallucinations: does not cause hallucinations
[2]; rats, 5HT-2A/2C agonists, ip
  prevention of the neurotoxic action of MK-801 / vacuole formation: can prevent vacuole formation caused by MK-801

## CN1CCN(C2=Nc3ccccc3Oc3ccc(Cl)cc32)CC1 [Loxapine]
[1]
  ED50: 23.6 mg/kg

## COc1cccc([C@H](O)C2CCN(CCc3ccc(F)cc3)CC2)c1OC [MDL 100,907]
5HT2C receptors
  activity at 5HT-2C receptors: does not substantially affect 2C receptors
5HT-2A receptors
  activity at 5HT-2A receptors: preferentially antagonizes 2A receptors

## C[C@]12N[C@H](Cc3ccccc31)c1ccccc12 [MK-801, (+)-5-methyl-10,11-dihydro-5H-di[a,d]cyclohepten-5,10-imine]
[3]
  mean number of vacuolated neurons per section: 223±10.5
[4]
  protection against NMDA excitotoxic damage: completely protected against excitotoxic damage; also recorded: showed no cytopathology

## Cc1cc2c(s1)Nc1ccccc1N=C2N1CCN(C)CC1 [Olanzapine]
[1]
  ED50: 1.4 mg/kg
  effect on vacuole formation: shown to reduce vacuole formation

## c1ccc(C2(N3CCCCC3)CCCCC2)cc1 [Phencyclidine]
humans
  psychotomimetic reactions / psychosis in humans: can induce a psychosis which is clinically indistinguishable from schizophrenia
Cerebrocortical neurons; [7]
  pathomorphological changes in brain: produce pathomorphological changes in various corticolimbic regions of the adult rat brain

## C[C@@H]1CN(CCCn2c3ccccc3c3ccccc32)C[C@H](C)N1 [Rimcazole]
[1]
  ED50: 17.8 mg/kg

## CN1CC[C@@H]2CN3CCc4cccc(c43)[C@@H]2C1.O=C(O)/C=C/C(=O)O [SDZ SER-082]
5HT2C receptors
  activity at 5HT-2C receptors: selective 5HT-2C antagonist
[2]; selective 5HT-2C antagonist, n=22
  effect on MK-801 neurotoxicity: did not affect MK-801 neurotoxicity, either positively or negatively

## CCN1CCCC1CNC(=O)c1cc(S(N)(=O)=O)ccc1OC (stereo not shown) [Sulpiride]
[1]
  ED50: > 200 mg/kg
  activity in protecting against NR/hypo-induced vacuoles (words): Inactive
[1]; listed as sulpiride
  activity in protecting against NR/hypo-induced vacuoles (words): inactive

## CSc1ccc2c(c1)N(CCC1CCCCN1C)c1ccccc1S2 (stereo not shown) [Thioridazine]
[1]
  ED50: 55.3 mg/kg

## CCNC1(c2cccs2)CCCCC1=O (stereo not shown) [Tiletamine]
Cerebrocortical neurons; [7]
  pathomorphological changes in brain: cause pathomorphological changes in the cerebral cortex of adult rats

## CCNC(C)Cc1cccc(C(F)(F)F)c1 (stereo not shown) [fenfluramine]
schizophrenia; schizophrenic patients
  effect on symptoms of schizophrenia: can exacerbate the symptoms and displays of schizophrenia

## CC[C@H]1C[C@H]2C[C@H]3c4[nH]c5ccc(OC)cc5c4CCN(C2)[C@@H]13 [ibogaine]
Craving for cocaine
  suppression of craving for cocaine: can suppress the craving for cocaine

## Cc1nc2sccn2c(=O)c1CCN1CCC(=C(c2ccc(F)cc2)c2ccc(F)cc2)CC1 [ritanserin]
schizophrenia; hallucinations, delusions
  effect on positive symptoms of schizophrenia: did not help relieve "positive" symptoms
schizophrenia; schizophrenic patients
  effect on symptoms of schizophrenia: only helped relieve certain "negative" symptoms of schizophrenia
schizophrenia; schizophrenic patients, mCPP
  effect on exacerbation of schizophrenia by mCPP: can be blocked
5HT-2A/2C receptor; ritanserin 0.03 mg/kg ip plus various doses of DOI, F(1,84)=23.36, p<0.0005
  effect of antagonist on DOI's protection: competitively blocks DOI's protective effects against the toxic side effects of MK-801; also recorded: significantly interfered with DOI's protection
5HT-2A/2C receptor; ritanserin 0.03 mg/kg ip, FIG. 3
  shift of the DOI blocking curve by ritanserin: shifted the blocking curve to the right

## C=CCC1(C(C)CCC)C(=O)NC(=O)NC1=O (stereo not shown) [secobarbitol]
[5]
  prevention of NMDA antagonist toxic side effects: prevent NMDA antagonists from causing toxic side effects

## N[C@@H](Cc1c[nH]c2ccccc12)C(=O)O [tryptophan]
schizophrenia; schizophrenic patients
  effect on symptoms of schizophrenia: can exacerbate the symptoms and displays of schizophrenia
